Patent publication US8895509B2, “MIR-200 family induces mesenchymal-to-epithelial transition (MET) in ovarian cancer cells” (Georgia Tech Research Corporation, priority 2010, dated 2014)

System: HEY cells
Test: microarray profiling (Affymetrix HG-U133 Plus 2.0) of miR-429 transfected HEY cells
Assay type: cell-based, human
Conditions: for Fold-change: miR-429 transfected HEY cells
Method: 6×10^4 cells per well were seeded in 24-well plates. After 24 h, cells were transfected with 30 nM of miR-429 and miR-320 miRNA oligonucleotides (Ambion, Austin, Tex.) using Lipofectamine 2000 reagent (Invitrogen, Carlsbad, Calif.). The Ambion Pre-miRNA Precursor Negative Control was used as a control. Three days after transfection, cells were split and transfected again. This process was repeated every 3 days until 21 days when cells were assayed for response.
Microarray analyses were performed using the Affymetrix system (HG-U133 Plus 2.0; Santa Clara, Calif.) as previously described [Bowen et al., BMC Med Genomics 2009, 2:71]. Briefly, the expression data were analyzed using MAS 5.0 Statistical Algorithm encoded in the Affymetrix Expression Console application. The expression values were normalized across samples by Z-score calculation using Spotfire Decision Site software. […] Gene enrichment analyses were carried out using GeneGO (http://www.genego.com/) gene ontology software.

[1] = miR-429 transfected cells vs controls, p<0.015, fold change 1.5

miR-429: miR-200 family member; mature miRNA UAAUACUGUCUGGUAAAACCGU (SEQ ID NO: 6); miRNA oligonucleotide (Ambion) transfected at 30 nM (listed as RNA, chemistry not given here; listed as Homo sapiens) [miR-200 family member; miRNA oligonucleotide (Ambion) transfected at 30 nM]
Fold-change (gene LDLRAD3): −1.74
Fold change (miR-429 transfected HEY cells relative to negative controls) (gene LMO4): −3.14
Fold change (miR-429 transfected HEY cells relative to negative controls) (gene LOC148189): −2.69
Fold change (miR-429 transfected HEY cells relative to negative controls) (gene LOC148987): −3.07
Fold change (miR-429 transfected HEY cells relative to negative controls) (gene LOC158381): −7.31
Fold change (miR-429 transfected HEY cells relative to negative controls) (gene LOC284561): −38.32
Fold change (miR-429 transfected HEY cells relative to negative controls) (gene LOC286178): −10.56
Fold-change (gene LOC339290): −1.87
Fold change (miR-429 transfected HEY cells relative to negative controls) (gene LOC401497): −9.19
Fold change (miR-429 transfected HEY cells relative to negative controls) (gene LOC439949): −2.48
Fold change (miR-429 transfected HEY cells relative to negative controls) (gene LRP4): −2.66
Fold change (miR-429 transfected HEY cells relative to negative controls) (gene MARS): −6.59
Fold change (miR-429 transfected HEY cells relative to negative controls) (gene MARS2): −2.50
Fold change (miR-429 transfected HEY cells relative to negative controls) (gene MERTK): −3.03
Fold change (miR-429 transfected HEY cells relative to negative controls) (gene MGC16121): −3.46
Fold change (miR-429 transfected HEY cells relative to negative controls) (gene MRAP): −3.05
Fold change (miR-429 transfected HEY cells relative to negative controls) (gene NAV3): −4.35
Fold change (miR-429 transfected HEY cells relative to negative controls) (gene NOC2L): −26.91
Fold change (miR-429 transfected HEY cells relative to negative controls) (gene OSTM1): −4.35
Fold change (miR-429 transfected HEY cells relative to negative controls) (gene PAPPA2): −23.75
Fold change (miR-429 transfected HEY cells relative to negative controls) (gene PCK2): −4.44
Fold change (miR-429 transfected HEY cells relative to negative controls) (gene PCOTH): −13.93
Fold change (miR-429 transfected HEY cells relative to negative controls) (gene PHGDH): −3.78
Fold change (miR-429 transfected HEY cells relative to negative controls) (gene PITX2): −2.45
Fold-change (gene PRTG): −1.61
Fold change (miR-429 transfected HEY cells relative to negative controls) (gene PSAT1): −6.92
Fold change (miR-429 transfected HEY cells relative to negative controls) (gene PTPN13): −3.10
Fold change (miR-429 transfected HEY cells relative to negative controls) (gene PYGO1): −3.61
Fold-change (gene RDH10): −2.08
Fold change (miR-429 transfected HEY cells relative to negative controls) (gene RGMB): −2.89
Fold change (miR-429 transfected HEY cells relative to negative controls) (gene RPL22L1): −2.45
Fold-change (gene SENP5): −1.80
Fold change (miR-429 transfected HEY cells relative to negative controls) (gene SESN2): −3.61
Fold change (miR-429 transfected HEY cells relative to negative controls) (gene SGSH): −2.57
Fold change (miR-429 transfected HEY cells relative to negative controls) (gene SH3PXD2B): −5.13
Fold change (miR-429 transfected HEY cells relative to negative controls) (gene SHANK2): −10.85
Fold-change (gene SHMT2): −2.04
Fold change (miR-429 transfected HEY cells relative to negative controls) (gene SLC1A4): −4.32
Fold change (miR-429 transfected HEY cells relative to negative controls) (gene SLC1A5): −3.01
Fold change (miR-429 transfected HEY cells relative to negative controls) (gene SLC7A11): −5.46
Fold change (miR-429 transfected HEY cells relative to negative controls) (gene SLC24A3): −10.20
Fold change (miR-429 transfected HEY cells relative to negative controls) (gene SLC27A4): −6.23
Fold change (miR-429 transfected HEY cells relative to negative controls) (gene SNORA68): −14.52
Fold change (miR-429 transfected HEY cells relative to negative controls) (gene SRCAP): −2.43
Fold-change (gene STARD13): −1.78
Fold change (miR-429 transfected HEY cells relative to negative controls) (gene SYF2): −12.64
Fold change (miR-429 transfected HEY cells relative to negative controls) (gene SYT11): −2.66
Fold-change (gene TIGD1): −2.38
Fold change (miR-429 transfected HEY cells relative to negative controls) (gene TLR1): −15.24
Fold change (miR-429 transfected HEY cells relative to negative controls) (gene TMEM156): −2.79
Fold change (miR-429 transfected HEY cells relative to negative controls) (gene TMEM201): −5.58
Fold-change (gene TSGA14): −2.33
change in expression by microarray (gene TSPAN13 (epithelial marker)): up-regulated
Fold-change (gene WDR43): −1.88
Fold change (miR-429 transfected HEY cells relative to negative controls) (gene YARS): −2.45
Fold-change (gene ZBTB24): −1.87
change in expression by microarray (gene ZEB2): did not display a significant change in expression
Fold change (miR-429 transfected HEY cells relative to negative controls) (gene ZNF30): −2.62
Fold-change (gene ZNF697): −1.91
Fold change (miR-429 transfected HEY cells relative to negative controls) (gene hCG_1654703): −7.46
number of genes significantly down regulated [1]: 296 genes
number of genes significantly up regulated [1]: 373 genes
number of genes displaying significant changes in expression (miR-429 transfected cells vs negative control): 669 genes
